Assay [1] has as its target Opioid receptor (Rattus norvegicus, UniProt P33533+P34975+P33535). Description: 50% Inhibition of stereospecific [3H]-naltrexone (10e-9 M) binding towards opiate receptor in rat brain homogenate. The format is tissue-based.
Assay [2] relates to Mus musculus. Description: Analgesic activity in mice after subcutaneous administration in tail-flicking assay; activity value ranges from 3.0 - 5.4. The format is functional. To be noted: sc.
In assay [3] the test system is Mus musculus. Description: Analgesic activity in mice after subcutaneous administration in writhing assay; 1.21-3.91. The format is functional. As to conditions: sc. (In general: Writhing tests count abdominal constrictions after an irritant is injected.)
For assay [4], the system named is Mus musculus. As to the kind of experiment: Analgesic activity in mice after oral administration in writhing assay; 13.71-42.00. The assay is classed as functional.
Assay [5] concerns Mus musculus. Description: Analgesic activity in mice after subcutaneous administration in writhing assay; 0.06-0.22. The format is functional. To be noted: sc.
Assay [6] deals with Mus musculus. As to the kind of experiment: Analgesic activity in mice after oral administration in tail-flicking assay; 7.22-10.25. The assay is classed as functional.
The test system of assay [7] is Mus musculus. Description: Analgesic activity in mice after oral administration in writhing assay; 0.70-2.80. The assay is classed as functional.
Assay [8] is filed under the species Mus musculus. Description: animal or person. As to conditions: sc.
Description: Analgesic activity in mice after subcutaneous administration in writhing assay; 0.26-0.83

In ChEMBL document CHEMBL1123025, “Acylmorphinans. A novel class of potent analgesic agents” (J Med Chem, 1985) one finds IC50 and ED50 data, which are given here for seven molecules.

For orientation: IC50 means the concentration that gives 50% inhibition. Usually ED50 stands for the midpoint of the dose-response relation. Low readings indicate an effect at a small dose, high ones a need for a large dose.

For `CC(O)c1ccc2c(c1)[C@@]13CCCC[C@H]1[C@@H](C2)N(C)CC3.Cl` (some centres not stated), the IC50 in assay [1] is 14 nM.

In assay [1], `CC(=O)c1ccc2c(c1)[C@@]13CCCC[C@H]1[C@@H](C2)N(CC1CC1)CC3.Cl` came in with an IC50 of 70 nM.

In assay [1], `CC(=O)c1ccc2c(c1)C[C@@H]1[C@@H]3CCCC[C@]23CCN1C` returned an IC50 of 13000 nM.

With `CC(=O)c1ccc2c(c1)[C@@]13CCCC[C@H]1[C@@H](C2)N(C)CC3`, the IC50 in assay [1] was determined as 210 nM. The ED50 in assay [2] stood at 4 mg/kg.

Consider `COc1ccc2c3c1O[C@H]1[C@@H](O)C=C[C@H]4[C@@H](C2)N(C)CC[C@@]341.COc1ccc2c3c1O[C@H]1[C@@H](O)C=C[C@H]4[C@@H](C2)N(C)CC[C@@]341.O.O=P(O)(O)O.O=P(O)(O)O` [CODEINE PHOSPHATE], for which the results for the ED50 in assay [3] and in assay [4] were 2.3 mg/kg and 24 mg/kg, respectively.

Regarding `CN1CC[C@]23CCCC[C@H]2[C@H]1Cc1ccc(O)cc13` [LEVORPHANOL], the ED50 in assay [5] was determined as 0.11 mg/kg; in assay [6], 8.5 mg/kg; in assay [7] it was 1.4 mg/kg. This molecule registered an IC50 in assay [1] of 0.004 nM.

Take `CN1CC[C@]23c4c5ccc(O)c4O[C@H]2[C@@H](O)C=C[C@H]3[C@H]1C5` [MORPHINE]: the ED50 in assay [8] came out at 0.46 mg/kg.
